Data reported in patent publication US12448352B2, “Beta adrenergic agonist and methods of using the same” (Curasen Therapeutics, Inc., priority 2019, dated 2025).

What was measured:
β1 adrenergic receptor = biological target: T1, β1 adrenergic receptor (Homo sapiens, UniProt P08588); test: cAMP Gs dynamic HTRF assay, β1 expressing CHO cells; assay type: cell-based
T1 construct: expressed in transfected cells
Method: (§1) cAMP homogeneous time-resolved fluorescence (HTRF). Compound efficacy was determined using the cAMP Gs dynamic HTRF assay (Cisbio, catalog #62AM4PEC) largely following the manufacturer's instructions, also detailed below.
(§2) Compound preparation. […] Standard serial dilution curves were 10-point, 5-fold dilutions starting from a highest concentration of 10 μM. […] Assay plates were centrifuged at 500×g for 10 seconds. Compounds and IBMX were prepared at 2× final dose to compensate for addition of cells.
(§3) Cell preparation. […] Cells were harvested using assay PBS, counted manually by hemocytometer or by an automated cell counter, pelleted by centrifugation (200×g, 5 minutes) and resuspended in 37° C. […]
(§4) HTRF reagent addition, reading and data analysis. […] Plates were centrifuged again at 500×g for 10 seconds, and HTRF was measured using a Tecan Spark plate reader at 50 flashes per well. […] Potency estimates (EC50) were derived from the four-parameter nonlinear regression of the concentration-effect curve and an estimate of relative efficacy was determined by comparing the magnitude of the test compound HTRF signal window (min-max dose) with the signal window of the full agonist control, isoproterenol.

β2 adrenergic receptor = biological target: T2, β2 adrenergic receptor (Homo sapiens, UniProt P07550); test: cAMP Gs dynamic HTRF assay, β2 expressing CHO cells; assay type: cell-based
T2 construct: expressed in transfected cells
Method: as §1, §2, §3, §4

[1] = Microsomal stability (rat); assay type: in vitro ADME; conditions: rat liver microsomes 0.5 mg/mL; read-out: Microsomal stability (in vitro CLint), Rat
Method: (§5) The master solution was prepared as follows.
(§6) Two separate experiments were performed as follows:
(§7) With NADPH: 10 μL of 20 mg/mL liver microsomes and 40 μL of 10 mM NADPH were added to the incubations. The final concentrations of microsomes and NADPH were 0.5 mg/mL and 1 mM, respectively.
(§8) Without NADPH: 10 μL of 20 mg/mL liver microsomes and 40 μL of ultra-pure H2O were added to the incubations. The final concentration of microsomes was 0.5 mg/mL.
(§9) The reaction was started with the addition of 4 μL of 3, 10, 30 and 100 μM test compound solution or control compound solution at the final concentration of 0.03, 0.1, 0.3 and 1 μM and carried out at 37° C.
(§10) Aliquots of 50 μL were taken from the reaction solution at 0, 15, 30, 45 and 60 min. The reaction was stopped by the addition of 4 volumes of cold acetonitrile with IS (100 nM alprazolam, 200 nM labetalol, 200 nM caffeine and 2 μM ketoprofen). Samples were centrifuged at 3, 220 g for 40 minutes. Aliquot of 100 μL of the supernatant was mixed with 100 μL of ultra-pure H2O and then used for LC-MS/MS analysis. […]
(§11) Peak areas were determined from extracted ion chromatograms. The slope value, k, was determined by linear regression of the natural logarithm of the remaining percentage of the parent drug vs. incubation time curve.
(§12) The in vitro half-life (in vitro t1/2) was determined from the slope value: […]

[2] = Microsomal stability (human); assay type: in vitro ADME; conditions: human liver microsomes 0.5 mg/mL; read-out: Microsomal stability (in vitro CLint), Human
Method: as §5, §6, §7, §8, §9, §10, §11, §12

[3] = Microsomal stability (dog); assay type: in vitro ADME; conditions: dog liver microsomes 0.5 mg/mL; read-out: Microsomal stability (in vitro CLint), Dog
Method: as §5, §6, §7, §8, §9, §10, §11, §12

[4] = Rat pharmacokinetic study (plasma); assay type: in vivo, male SD rats; conditions: IV 1 mg/kg
Method: The rat pharmacokinetics studies of exemplary compounds 03-3, 03-5, and 03-115 were conducted with male SD rats. These rats were typically about 6-8 weeks old, weighing 200 g to 300 g. Animals were fasted overnight and free access to food 4 hours after dosing. A required volume of vehicle was added to reach the target concentration of the test article and vehicle component to prepare for the dosing. The dosing vehicle was PEG400 or 30% PEG400 in saline for IV, or 0.5% methylcellulose in water for PO. For IV dosing, the animals were administered intravenously via tail vein. For PO dosing, the animals were administered via oral gavage. After dosing, blood sample was collected (˜0.2 mL per time point) through jugular vein or heart puncture. Blood of each sample was transferred into plastic micro centrifuge tubes containing EDTA-K2. Collection tubes with blood samples and anticoagulant were inverted several times for proper mixing of the tube contents and then placed on wet ice. The blood samples were centrifuged at 2000 g for 5 minutes at 4° C. to obtain plasma which was stored in a freezer at −75±15° C. prior to analysis. Samples were analyzed using LC-MS/MS. WinNonlin were used for pharmacokinetic calculations.

T2 sequence (P07550 whole entry): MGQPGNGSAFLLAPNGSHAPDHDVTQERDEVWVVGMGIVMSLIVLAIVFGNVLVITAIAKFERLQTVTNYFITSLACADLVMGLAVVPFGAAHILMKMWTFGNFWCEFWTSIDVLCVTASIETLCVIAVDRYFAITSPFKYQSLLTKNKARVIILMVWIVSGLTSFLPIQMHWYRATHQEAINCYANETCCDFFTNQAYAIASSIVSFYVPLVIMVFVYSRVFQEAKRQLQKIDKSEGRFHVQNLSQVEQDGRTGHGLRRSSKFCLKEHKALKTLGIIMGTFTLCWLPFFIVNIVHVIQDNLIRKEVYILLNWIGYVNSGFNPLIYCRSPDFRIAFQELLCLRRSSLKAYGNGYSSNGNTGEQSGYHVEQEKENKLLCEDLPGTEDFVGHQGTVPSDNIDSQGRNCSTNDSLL
T1 sequence (P08588 whole entry): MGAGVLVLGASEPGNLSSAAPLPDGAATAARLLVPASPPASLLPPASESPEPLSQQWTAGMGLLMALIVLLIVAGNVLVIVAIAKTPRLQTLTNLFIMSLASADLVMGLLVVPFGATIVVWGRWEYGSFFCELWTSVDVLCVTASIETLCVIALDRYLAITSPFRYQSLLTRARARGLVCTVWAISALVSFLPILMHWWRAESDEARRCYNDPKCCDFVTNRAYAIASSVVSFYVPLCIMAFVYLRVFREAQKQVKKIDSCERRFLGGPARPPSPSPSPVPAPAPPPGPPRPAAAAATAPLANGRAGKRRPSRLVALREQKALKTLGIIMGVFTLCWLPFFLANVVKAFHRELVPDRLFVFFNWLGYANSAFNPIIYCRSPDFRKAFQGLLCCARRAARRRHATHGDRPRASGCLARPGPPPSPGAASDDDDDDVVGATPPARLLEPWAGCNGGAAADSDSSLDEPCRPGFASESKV

| Compound | EC50 (β1 adrenergic receptor) [µM] | EC50 (β2 adrenergic receptor) [µM] | microsomal CLint [1] [µL/min/mg] | microsomal CLint [2] [µL/min/mg] | microsomal CLint [3] [µL/min/mg] | Vss_obs [4] [L/kg] | AUClast [4] [ng·h/mL] |
| --- | --- | --- | --- | --- | --- | --- | --- |
| COc1ccc(C[C@@H](C)NC[C@H](O)c2ccc(C3CC3)nc2C)cc1 [Compound 03-269] | 0.01 to 0.1 | < 0.01 |  |  |  |  |  |
| CC(C)(C)NC[C@H](O)c1cccc(C#N)n1 [Compound 03-5, (S)-6-(2-(tert-butylamino)-1-hydroxyethyl)picolinonitrile] |  |  | 2.53 | 2.96 | 4.32 | 1.89 |  |
| CC(C)(C)NC[C@H](O)c1cccc(C(F)(F)F)n1 [Compound 03-3] |  |  | 3.48 | 3.49 | 7.99 | 2.92 | 546 |
